Measured values taken from article PMC12692036, “Multi-Target Screening of Anti-Diabetic and Antioxidant Potential Bioactive Constituents from Dandelion” (Foods, 2025).

Assays:
α-glucosidase [1] = assay: Affinity ultrafiltration MTAUF-UPLC-MS/MS of DE with α-glucosidase; assay type: binding, Saccharomyces cerevisiae; details: peak area with active / inactivated enzyme; DE 5.0 mg·mL^−1
Experimental: (§1) Based on hypoglycemic inhibitory activities, potential inhibitors in the DE extract were screened using the MTAUF-UPLC-MS/MS method, as previously described. Firstly, α-amylase or α-glucosidase enzymes were inactivated by heating in boiling water for 20 min. Secondly, 100 µL of DE sample (5.0 mg·mL^−1 in PBS, pH = 6.8), 20 µL of either 2 U·mL^−1 active or inactivated enzyme, and 190 µL PBS were mixed, shaken well, and incubated at 37 °C for 60 min. […] This step was repeated 3 times. […] This step was also repeated 3 times. The resulting solution was dried and reconstituted in 50 µL methanol for further UPLC-QTOF-MS/MS analysis.

α-amylase [2] = biological target: T1, α-amylase (Sus scrofa, UniProt P00690); assay: Affinity ultrafiltration MTAUF-UPLC-MS/MS of DE with α-amylase; assay type: binding, porcine; details: peak area with active / inactivated enzyme; DE 5.0 mg·mL^−1
T1 construct: purchased Adamas-beta Reagents Co., Ltd. (Shanghai, China); host or cells: porcine pancreas
T1 sequence (P00690 16-511): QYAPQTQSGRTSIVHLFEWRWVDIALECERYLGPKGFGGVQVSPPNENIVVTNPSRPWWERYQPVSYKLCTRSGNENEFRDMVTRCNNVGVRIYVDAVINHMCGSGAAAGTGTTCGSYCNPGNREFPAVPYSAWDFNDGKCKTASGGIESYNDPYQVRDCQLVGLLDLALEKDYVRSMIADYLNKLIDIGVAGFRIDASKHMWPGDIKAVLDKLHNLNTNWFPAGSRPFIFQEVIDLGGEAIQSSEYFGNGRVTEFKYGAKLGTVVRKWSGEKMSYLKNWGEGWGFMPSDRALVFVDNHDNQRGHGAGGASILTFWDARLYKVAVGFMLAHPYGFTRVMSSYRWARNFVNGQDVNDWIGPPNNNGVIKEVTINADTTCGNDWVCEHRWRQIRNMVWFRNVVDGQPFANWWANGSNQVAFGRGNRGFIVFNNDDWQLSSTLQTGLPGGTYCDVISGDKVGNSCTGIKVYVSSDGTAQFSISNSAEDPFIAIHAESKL
Experimental: as §1

[3] = DPPH radical scavenging capacity; details: mean ± SD, n = 3
Experimental: This method had been slightly modified according to the literature. Firstly, 10 μL of sample test solution and 190 μL of 0.1 mmol·L^−1 DPPH working solution were added to a 96-well microplate, shaken well, and reacted in the dark for 30 min. The absorbance at 517 nm was measured by ReadMax1200 microplate reader. The positive control was Trolox and Vc, and the blank control was anhydrous ethanol, with each experiment conducted in triplicate. The standard curve was plotted to obtain the linear regression equation. […] The TEAC values were calculated from the standard curve of Trolox and expressed as millimoles of Trolox equivalents per gram of sample (mmol TE/g).

[4] = ABTS radical scavenging capacity; details: mean ± SD, n = 3
Experimental: This method had been slightly modified according to the literature. Firstly, 1.32 mg·mL^−1 potassium persulfate and 3.84 mg·mL^−1 ABTS^+• were mixed in a volume ratio of 1:1 to obtain the ABTS^+• mother liquor. The ABTS^+• mother liquor was stored in a dark environment for 12–16 h, diluted with ethanol, and adjusted to an absorbance range of 0.695 ± 0.705 at 734 nm to obtain an ABTS^+• working solution. Secondly, 100 μL of sample test solution and 190 μL ABTS^+• working solution were added to a 96-well microplate, shaken well, and reacted in the dark for 30 min. Finally, the absorbance at 734 nm was measured by ReadMax1200 microplate reader. The positive control was Trolox and Vc, and the blank control was anhydrous ethanol, with each experiment conducted in triplicate. The ABTS radical scavenging capacities were also expressed as IC50 and TEAC values, calculating according to Section 2.6.1. The standard curve was plotted to obtain the linear regression equation. The ABTS RCR was calculated as follows: (3) ABTS RCR=AABTS−ASample/AABTS×100% where AABTS and ASample were the absorbance values of blank control and sample, respectively.

α-amylase [5] = biological target: T1, α-amylase; assay: α-Amylase inhibitory activity (DNS method); assay type: biochemical, porcine; details: mean ± SD, n = 3
Experimental: α-Amylase inhibitory activity was examined based on a modified method described previously. Firstly, 200 µL of sample test solution and 100 µL of 1 U·mL^−1 α-amylase solution were transferred into 5 mL centrifuge tube, and incubated in a 37 °C constant temperature water bath for 10 min. Secondly, 200 µL of 1% starch solution was added and incubated in a 37 °C constant temperature water bath for 5 min. Thirdly, 500 µL of DNS reagent was prepared, added, immersed and reacted in boiling water for 5 min [7]. Subsequently, the reaction solution was removed from boiling water and cooled for 10 min. Finally, 200 µL of the reaction solution was transferred into a 96-well microplate, and measured its absorbance value at a wavelength of 540 nm by ReadMax1200 microplate reader. Each experiment was conducted in triplicate.

α-glucosidase [6] = assay: α-Glucosidase inhibitory activity (pNPG); assay type: biochemical, Saccharomyces cerevisiae; details: mean ± SD, n = 3
Experimental: α-Glucosidase inhibitory activity was examined based on a modified method described previously. […] Then, 40 μL of 5 mmol·L^−1 pNPG was added, and the reaction was for an additional 15 min. Finally, 80 μL of 1 mol·L^−1 sodium carbonate was added to terminate the reaction, and measured its absorbance value at a wavelength of 405 nm by ReadMax1200 microplate reader (Shanpu, Shanghai, China). Each experiment was conducted in triplicate. […] The IR was calculated according to Equation (1) in Section 2.5.1.

[7] = FRAP iron ion reduction capacity; details: mean ± SD, n = 3
Experimental: This method had been slightly modified according to the literature. Firstly, 40 mmol·L^−1 HCl, 100 mmol·L^−1 FeSO4, 20 mmol·L^−1 FeCl3, 0.3 mol·L^−1 acetic acid sodium acetate buffer, and 10 mmol·L^−1 TPTZ were carefully prepared, respectively. Secondly, the TPTZ working solution was prepared by mixing 20 mmol·L^−1 FeCl3, 0.3 mol·L^−1 acetic acid sodium acetate buffer, and 10 mmol·L^−1 TPTZ in a volume ratio of 1:10:1. Thirdly, 100 μL of sample test solution and 190 μL TPTZ working solution were added to a 96-well microplate, shaken well, and reacted at room temperature for 10 min. Finally, the absorbance at 593 nm was measured by ReadMax1200 microplate reader. The positive control was Trolox and Vc, and the blank control was anhydrous ethanol, with each experiment conducted in triplicate. The FRAP assay results were quantified by extrapolating the absorbance values to the ferrous sulfate standard curve, with the antioxidant capacity expressed as millimolar ferrous ion equivalents per gram of dry sample weight (mmol Fe^2+·g^−1). The FRAP iron ion reduction capacities were also expressed as TEAC values, calculated according to Section 2.6.1.

relative binding affinity (RBA) toward α-glucosidase (α-glucosidase [1]) | relative binding affinity (RBA) toward α-amylase (α-amylase [2]) | DPPH radical scavenging capacity IC50 [3] | ABTS radical scavenging capacity IC50 [4] | IC50 of α-amylase inhibitory activity (α-amylase [5]) | IC50 of α-glucosidase inhibitory activity (α-glucosidase [6]) | IC50 (α-amylase [5]) | SMILES | iron ion reducing capacity, equivalent concentration of ferrous ions (FRAP) [7]
less than 1 | 1.71 ± 0.07 | 5.55 ± 0.02 mg/L | 3.01 ± 0.03 mg/L | 254.00 ± 0.78 mg/L | 84.84 ± 4.31 mg/L | – | O=C(/C=C/c1ccc(O)c(O)c1)O[C@H]1[C@H](O)C[C@](O)(C(=O)O)C[C@H]1OC(=O)/C=C/c1ccc(O)c(O)c1 [Compound 2, isochlorogenic acid C] | 107.35 ± 3.42 mmol Fe^2+·g^−1
2.47 ± 0.07 | less than 1 | – | – | – | – | – | O=C(O)c1ccc(O)cc1 [Compound 3, 4-hydroxybenzoic acid] | –
– | – | 5.18 ± 0.02 mg/L | 3.93 ± 0.04 mg/L | – | – | 99.5 µM | O=c1c(O)c(-c2ccc(O)cc2)oc2cc(O)cc(O)c12 [Compound 15, kaempferol] | 57.56 ± 1.33 mmol Fe^2+·g^−1
less than 1 | 1.83 ± 0.07 | 1.96 ± 0.05 mg/L | 2.47 ± 0.05 mg/L | – | – | – | O=c1cc(-c2ccc(O)c(O)c2)oc2cc(O)cc(O)c12 [Compound 7, luteolin] | –
1.11 ± 0.03 | 1.53 ± 0.06 | – | – | – | – | – | O=C1C[C@@H](c2ccccc2)Oc2cc(O)cc(O)c21 [Compound 25, pinocembrin] | –
1.46 ± 0.09 | less than 1 | – | – | – | – | – | C=C1CC[C@]2(C)CC[C@]3(C)[C@H](CC[C@@H]4[C@@]5(C)CC[C@H](O)C(C)(C)[C@@H]5CC[C@]43C)[C@H]2[C@@H]1C [Compound 48, taraxasterol] | –
2.09 ± 0.06 | 2.13 ± 0.07 | – | – | – | – | – | COc1cc(O)c2c(=O)cc(-c3ccc(O)cc3)oc2c1 [Compound 27, genkwanin] | –
– | less than 1 | – | – | – | – | – | COc1cc(-c2cc(=O)c3c(O)cc(O)cc3o2)cc(OC)c1O[C@H](CO)[C@@H](O)c1ccc(O)cc1 [Compound 17, calquiquelignan D] | –
– | – | 4.23 ± 0.04 mg/L | 2.12 ± 0.02 mg/L | – | – | – | O=c1c(O)c(-c2ccc(O)c(O)c2)oc2cc(O)cc(O)c12 [Compound 8, quercetin] | 56.40 ± 1.81 mmol Fe^2+·g^−1
less than 1 | 1.05 ± 0.02 | – | – | – | – | – | COc1ccc(C=CC(=O)O)cc1OC [Compound 6, 3,4-dimethoxy cinnamic acid] | –
1.64 ± 0.05 | 1.66 ± 0.08 | – | – | – | – | – | O=c1cc(-c2ccccc2)oc2cc(O)cc(O)c12 [Compound 24, chrysin] | –
1.54 ± 0.03 | 1.48 ± 0.03 | – | – | – | 35.99 ± 0.42 mg/L | – | O=c1cc(-c2ccc(O)cc2)oc2cc(O)cc(O)c12 [Compound 14, apigenin] | –

SMILES | relative binding affinity (RBA) toward α-glucosidase (α-glucosidase [1]) | relative binding affinity (RBA) toward α-amylase (α-amylase [2]) | DPPH radical scavenging capacity IC50 [3] | ABTS radical scavenging capacity IC50 [4] | IC50 of α-amylase inhibitory activity (α-amylase [5]) | IC50 of α-glucosidase inhibitory activity (α-glucosidase [6]) | IC50 (α-amylase [5]) | iron ion reducing capacity, equivalent concentration of ferrous ions (FRAP) [7]
COc1cc(/C=C/C(=O)O)ccc1O [Compound 5, ferulic acid] | 1.35 ± 0.05 | 1.08 ± 0.05 | 6.11 ± 0.06 mg/L | 1.20 ± 0.00 mg/L | – | – | – | –
O=c1c(-c2ccc(O)cc2)coc2cc(O)cc(O)c12 [Compound 13, genistein] | 1.60 ± 0.03 | 1.15 ± 0.09 | – | 18.26 ± 0.52 mg/L | – | – | – | –
COc1cc(-c2cc(=O)c3c(O)cc(O)cc3o2)cc(OC)c1O [Compound 18, tricin] | – | less than 1 | – | – | – | – | – | –
